Measurements published in patent US20210198277A1, “AMINE-SUBSTITUTED ARYL OR HETEROARYL COMPOUNDS” (Epizyme, Inc., priority 2016, published 2021).

These molecules were tested against T1, EHMT2 (Homo sapiens, UniProt Q96KQ7) (assay: MDA-MB-231 H3K9me2 in-cell Western assay (EHMT2 ICW)). Conditions: Table II; MDA-MB-231 H3K9me2 in-cell Western; read-out: EHMT2 ICW (IC50 μM).
T1 construct: host or cells: MDA-MB-231
T1 sequence (Q96KQ7 1-1210): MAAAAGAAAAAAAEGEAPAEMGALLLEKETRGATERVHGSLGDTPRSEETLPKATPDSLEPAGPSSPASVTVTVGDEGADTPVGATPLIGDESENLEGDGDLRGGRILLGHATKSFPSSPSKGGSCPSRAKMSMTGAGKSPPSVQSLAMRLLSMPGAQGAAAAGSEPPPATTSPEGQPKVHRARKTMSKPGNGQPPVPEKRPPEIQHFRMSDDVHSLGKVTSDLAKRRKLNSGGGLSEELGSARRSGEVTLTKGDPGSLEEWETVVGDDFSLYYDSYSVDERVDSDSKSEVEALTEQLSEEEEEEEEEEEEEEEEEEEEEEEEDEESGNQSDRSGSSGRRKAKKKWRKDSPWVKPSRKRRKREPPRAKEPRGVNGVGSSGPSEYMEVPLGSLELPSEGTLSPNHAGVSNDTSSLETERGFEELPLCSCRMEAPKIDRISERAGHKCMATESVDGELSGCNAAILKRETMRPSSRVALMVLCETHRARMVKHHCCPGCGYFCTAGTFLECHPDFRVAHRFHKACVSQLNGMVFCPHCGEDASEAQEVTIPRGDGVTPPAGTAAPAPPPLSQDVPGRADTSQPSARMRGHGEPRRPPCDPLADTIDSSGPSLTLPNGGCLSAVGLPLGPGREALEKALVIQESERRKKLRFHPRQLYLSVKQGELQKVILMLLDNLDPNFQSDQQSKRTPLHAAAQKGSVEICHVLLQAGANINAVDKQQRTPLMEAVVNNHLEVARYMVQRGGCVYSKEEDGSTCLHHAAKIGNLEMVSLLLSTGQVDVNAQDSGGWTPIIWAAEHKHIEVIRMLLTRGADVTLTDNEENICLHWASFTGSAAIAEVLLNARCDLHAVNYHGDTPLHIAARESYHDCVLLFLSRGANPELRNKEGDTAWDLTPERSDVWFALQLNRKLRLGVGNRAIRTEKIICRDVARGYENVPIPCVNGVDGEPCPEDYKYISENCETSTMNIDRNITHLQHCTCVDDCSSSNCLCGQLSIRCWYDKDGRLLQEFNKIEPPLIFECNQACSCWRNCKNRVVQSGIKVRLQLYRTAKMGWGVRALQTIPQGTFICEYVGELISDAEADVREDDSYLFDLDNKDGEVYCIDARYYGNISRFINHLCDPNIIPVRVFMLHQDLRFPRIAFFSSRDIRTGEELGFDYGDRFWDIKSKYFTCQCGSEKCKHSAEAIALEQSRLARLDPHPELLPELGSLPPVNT
Format: cell-based
Procedure, shortened: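 For 48 h at 37 °C, breast cancer MDA-MB-231 cells were incubated with compound, then fixed and immunostained for H3K9me2, with DRAQ5 used for normalisation. Each well's signal ratio yielded percent inhibition, and IC50 values were derived by fitting a four-parameter curve.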

Row | IC50 | Structure (SMILES)
1 | 1 to 10 µM | COc1ccc(Nc2nccc(NCC(=O)N(C)c3ccccc3)n2)cc1OCCCN1CCCC1 [Compound 52]
2 | 0.1 to 1 µM | COc1ccc(Nc2nccc(NCC3CCN(CC(F)(F)F)CC3)n2)cc1OCCCN1CCCC1 [Compound 4, N^2-(4-methoxy-3-(3-(pyrrolidin-1-yl)propoxy)phenyl)-N^4-((1-(2,2,2-trifluoroethyl)piperidin-4-yl)methyl)pyrimidine-2,4-diamine]
3 | > 10 µM | COc1ccc(Nc2nccc(NCC3CCNCC3)n2)cc1OCCCN1CCCC1 [Compound 90]
4 | < 0.1 µM | CNc1ccnc(Nc2ccc(OC)c(OCCCN3CCCC3)c2)n1 [Compound 1, N^2-(4-methoxy-3-(3-(pyrrolidin-1-yl)propoxy)phenyl)-N^4-methylpyrimidine-2,4-diamine]
5 | 0.1 to 1 µM | COc1ccc(Nc2nccc(NCC3CCOCC3)n2)cc1OCCCN1CCCC1 [Compound 3, N^2-(4-methoxy-3-(3-(pyrrolidin-1-yl)propoxy)phenyl)-N^4-((tetrahydro-2H-pyran-4-yl)methyl)pyrimidine-2,4-diamine]
6 | 0.1 to 1 µM | COc1ccc(Nc2nccc(NC3CCOCC3)n2)cc1OCCCN1CCCC1 [Compound 5, N^2-(4-methoxy-3-(3-(pyrrolidin-1-yl)propoxy)phenyl)-N^4-(tetrahydro-2H-pyran-4-yl)pyrimidine-2,4-diamine]
7 | 1 to 10 µM | COc1ccc(Nc2nccc(N(C)Cc3ccncc3)n2)cc1OCCCN1CCCC1 [Compound 56]
8 | 1 to 10 µM | COc1ccc(Nc2nccc(NCC(=O)N3CCOCC3)n2)cc1OCCCN1CCCC1 [Compound 51]

Same assay, conditions: Table III; MDA-MB-231 H3K9me2 in-cell Western; read-out: EHMT2 ICW (IC50 μM)

Row | IC50 | Structure (SMILES)
9 | 0.1 to 1 µM | CNc1ccnc(Nc2ccc(OC)c(COC3CCN(C)C3)c2)n1 (stereo not drawn) [Compound 407, N^2-(4-methoxy-3-(((1-methylpyrrolidin-3-yl)oxy)methyl)phenyl)-N^4-methylpyrimidine-2,4-diamine]
10 | 0.1 to 1 µM | CCN1CCC(COc2cc(Nc3nccc(NC)n3)ccc2OC)C1 (stereo not drawn) [Compound 408, N^2-(3-((1-ethylpyrrolidin-3-yl)methoxy)-4-methoxyphenyl)-N^4-methylpyrimidine-2,4-diamine]
11 | 0.1 to 1 µM | CNc1ccnc(Nc2ccc(OC)c(OCCCN(C)C)c2)n1 [Compound 387]
12 | > 10 µM | CNc1ccnc(Nc2ccc3cnn(CCCN(C)C)c3c2)n1 [Compound 388, N^2-(1-(3-(dimethylamino)propyl)-1H-indazol-6-yl)-N^4-methylpyrimidine-2,4-diamine]
13 | > 10 µM | CNc1ccnc(Nc2ccc3cnn(CCN(C)C)c3c2)n1 [Compound 386]
14 | > 10 µM | CNc1ccnc(Nc2cccc(N3CCC(N)C3)c2)n1 (stereo not drawn) [Compound 400]
15 | 0.1 to 1 µM | CNc1ccnc(Nc2ccc(OC)c(OCC3CCN(C(C)C)C3)c2)n1 (stereo not drawn) [Compound 409, N^2-(3-((1-isopropylpyrrolidin-3-yl)methoxy)-4-methoxyphenyl)-N^4-methylpyrimidine-2,4-diamine]
16 | > 10 µM | CNc1ccnc(Nc2ccc3cn(CCN(C)C)nc3c2)n1 [Compound 404, N^2-(2-(2-(dimethylamino)ethyl)-2H-indazol-6-yl)-N^4-methylpyrimidine-2,4-diamine]
17 | 1 to 10 µM | CNc1ccnc(Nc2ccc(OC)c(OCC3CCN(C)C3)c2)n1 (single isomer, unassigned) [Compound 415]
18 | > 10 µM | CNc1ccnc(Nc2ccc3cn(CCCN(C)C)nc3c2)n1 [Compound 405]
19 | > 10 µM | CCNC(=O)c1cc(Nc2nccc(NC)n2)ccc1Cl [Compound 396]
20 | > 10 µM | CNc1ccnc(Nc2ccc3c(C)nn(CCCN(C)C)c3c2)n1 [Compound 389]
21 | 0.1 to 1 µM | CNc1ccnc(Nc2ccc(OC)c(OCC3CCN(C)C3)c2)n1 (stereo not drawn) [Compound 393]
22 | 1 to 10 µM | CNc1cc(C)nc(Nc2ccc(OC)c(OCC3CCN(C)C3)c2)n1 (single isomer, unassigned) [Compound 417]
23 | 0.1 to 1 µM | CNc1cc(C)nc(Nc2ccc(OC)c(OCC3CCCN(C)C3)c2)n1 (stereo not drawn) [Compound 413, N^2-(4-methoxy-3-((1-methylpiperidin-3-yl)methoxy)phenyl)-N^4,6-dimethylpyrimidine-2,4-diamine]
24 | 0.1 to 1 µM | CNc1ccnc(Nc2ccc(OC)c(OCCCN3CC(O)C3)c2)n1 [Compound 414, 1-(3-(2-methoxy-5-((4-(methylamino)pyrimidin-2-yl)amino)phenoxy)propyl)azetidin-3-ol]
25 | > 10 µM | COc1ccc(Nc2ccc3cn(C)nc3n2)cc1OCCCN1CCCC1 [Compound 402]
26 | 1 to 10 µM | CNc1ccnc(Nc2ccc(Cl)c(OCCCN3CCCC3)c2)n1 [Compound 398]
27 | 1 to 10 µM | CNc1cc(C)nc(Nc2ccc(OC)c(COC3CCN(C)C3)c2)n1 (stereo not drawn) [Compound 421, N^2-(4-methoxy-3-(((1-methylpyrrolidin-3-yl)oxy)methyl)phenyl)-N^4,6-dimethylpyrimidine-2,4-diamine]
28 | 0.1 to 1 µM | CNc1ccnc(Nc2ccc(OC)c(OCC3CCN(C4CC4)C3)c2)n1 (stereo not drawn) [Compound 411, N^2-(3-((1-cyclopropylpyrrolidin-3-yl)methoxy)-4-methoxyphenyl)-N^4-methylpyrimidine-2,4-diamine]
29 | 1 to 10 µM | COc1ccc(Nc2nccc(NCC(F)(F)F)n2)cc1OCCCN1CCCC1 [Compound 392]

The remaining lines, values behind:

Row | Structure (SMILES) | IC50
30 | CNc1nc(Nc2ccc(OC)c(OCCCN3CCCC3)c2)ncc1C(F)(F)F [Compound 358] | > 10 µM
31 | COc1ccc(Nc2nccc(NCC3CCOCC3)n2)cc1OC1CC2(C1)CN(C)C2 [Compound 367] | > 10 µM
32 | CNc1ncc(C(F)(F)F)c(Nc2ccc(OC)c(OCCCN3CCCC3)c2)n1 [Compound 359] | > 10 µM
33 | CNc1cc(C#N)nc(Nc2ccc(OC)c(OCCCN3CCCC3)c2)n1 [Compound 384] | > 10 µM
34 | CNc1ccnc(Nc2ccc(F)c(OCCCN3CCCC3)c2)n1 [Compound 368] | > 10 µM
35 | CC(C)Nc1ccnc(Nc2cccc(OCCCN3CC[C@@H](F)C3)c2)n1 [Compound 375] | > 10 µM
36 | CNc1nc(Nc2ccc(OC)c(OCCCN3CCCC3)c2)ncc1C#N [Compound 357] | > 10 µM
37 | CNc1nccc(Nc2ccc(OC)c(OCCCN3CCCC3)c2)n1 [Compound 355] | 0.1 to 1 µM
38 | COc1ccc(Nc2ccnc3[nH]ccc23)cc1OCCCN1CCCC1 [Compound 374] | > 10 µM
39 | CNc1ccnc(Nc2ccc(OC)c(OCCN3CCOCC3)c2)n1 [Compound 361] | > 10 µM
40 | CNc1nc(Nc2ccc(OC)c(OCCCN3CCCC3)c2)nc(C)c1F [Compound 360] | 0.1 to 1 µM
41 | CNc1cc(C)nc(Nc2ccc(F)c(OCCCN3CCCC3)c2)n1 [Compound 356] | > 10 µM
42 | CNc1ccnc(Nc2ccc3c(c2)N(C(=O)CCN(C)C)CC3)n1 [Compound 363] | > 10 µM
43 | CNc1ccnc(Nc2ccc(OC)c(COCCN3CCCC3)c2)n1 [Compound 382] | 0.1 to 1 µM
44 | CNc1ccnc(Nc2ccc(OC)c(OCCCN3CCCC3)c2)c1 [Compound 379] | 1 to 10 µM
45 | COc1ccc(Nc2nccc(CNC3CCOCC3)n2)cc1OCCCNc1ccccc1 [Compound 365] | > 10 µM
46 | CNc1ccnc(Nc2ccc3ccn(CCN4CCCC4)c(=O)c3c2)n1 [Compound 381] | > 10 µM
47 | COc1ccc(Nc2cccc3[nH]ccc23)cc1OCCCN1CCCC1 [Compound 265, N-(4-methoxy-3-(3-(pyrrolidin-1-yl)propoxy)phenyl)-1H-indol-4-amine] | > 10 µM
48 | COc1ccc(Nc2nccc(N)n2)cc1OCCCN1CCCC1 [Compound 369] | 1 to 10 µM
49 | CCc1cc(NC)nc(Nc2ccc(OC)c(OCCCN3CCCC3)c2)n1 [Compound 364] | 0.1 to 1 µM
50 | CNc1cc(OC)nc(Nc2ccc(OC)c(OCCCN3CCCC3)c2)n1 [Compound 261, 6-methoxy-N^2-(4-methoxy-3-(3-(pyrrolidin-1-yl)propoxy)phenyl)-N^4-methylpyrimidine-2,4-diamine] | > 10 µM
51 | CNc1cc(Nc2cc(OCCCN3CCCC3)c(OC)cn2)ccn1 [Compound 372] | 0.1 to 1 µM
52 | COc1ccc(Nc2nccc(NC(C)C3CCOCC3)n2)cc1OCCCN1CCCC1 (stereo not drawn) [Compound 378] | 0.1 to 1 µM
53 | CNc1cc(C(F)(F)F)nc(Nc2ccc(OC)c(OCCCN3CCCC3)c2)n1 [Compound 362] | > 10 µM
54 | CCc1cc(NC)nc(Nc2ccc(OC)c(OCCCN3CC[C@@H](F)C3)c2)n1 [Compound 385] | 1 to 10 µM
